Calls of active or inactive are those of the source. The calls are words filed in the database; no cut-off is given here.

Assay [1] deals with Cholinesterase (Equus caballus) (UniProt P81908). The assay can be described thus: Inhibition of equine BuChE at 100 uM using […] as substrate incubated for 29 mins by Ellman's method relative to control. In general terms: DTNB colorimetry detects thiols as they appear.
The subject of assay [2] is Sarcoptes scabiei. As to the kind of experiment: Miticidal activity against Sarcoptes scabiei assessed as mortality rate at 100 uM measured upto 48 hrs by microscopic analysis. The class given is functional.
Assay [3] deals with Sarcoptes scabiei. The assay can be described thus: Miticidal activity against Sarcoptes scabiei Larva assessed as effect on larval mortality at 100 uM measured upto 48 hrs by microscopic analysis. The class given is functional, organism-based.
Assay [4] concerns Sarcoptes scabiei. As to the kind of experiment: Miticidal activity against Sarcoptes scabiei eggs assessed as effect on egg hatching at 100 uM measured upto 48 hrs by microscopic analysis. The class given is functional, organism-based.
The next assay concerns NFF. As to the kind of experiment: Cytotoxicity against human NFF cells assessed as cell growth inhibition measured after 6 days by SRB assay. The class given is functional, cell-based. Particulars: 144 h. In general terms: Sulforhodamine B stains cellular protein and so reports cell mass.
For a further assay, the system named is HT-29. The assay can be described thus: Cytotoxicity against human HT-29 cells assessed as cell growth inhibition measured after 6 days by SRB assay. The class given is functional, cell-based. Conditions: HT-29, 144 h.
A further assay deals with MCF7. As to the kind of experiment: Cytotoxicity against human MCF7 cells assessed as cell growth inhibition measured after 6 days by SRB assay. The class given is functional, cell-based. Conditions: MCF7, 144 h.
The test system of another assay is MM96L. As to the kind of experiment: Cytotoxicity against human MM96L cells assessed as cell growth inhibition measured after 6 days by SRB assay. Conditions: 144 h. The class given is functional, cell-based.
For another assay, the system named is HeLa. As to the kind of experiment: Cytotoxicity against human HeLa cells assessed as cell growth inhibition measured after 6 days by SRB assay. The class given is functional, cell-based. Particulars: 144 h.

Sequence of Cholinesterase (Equus caballus) (P81908 whole entry): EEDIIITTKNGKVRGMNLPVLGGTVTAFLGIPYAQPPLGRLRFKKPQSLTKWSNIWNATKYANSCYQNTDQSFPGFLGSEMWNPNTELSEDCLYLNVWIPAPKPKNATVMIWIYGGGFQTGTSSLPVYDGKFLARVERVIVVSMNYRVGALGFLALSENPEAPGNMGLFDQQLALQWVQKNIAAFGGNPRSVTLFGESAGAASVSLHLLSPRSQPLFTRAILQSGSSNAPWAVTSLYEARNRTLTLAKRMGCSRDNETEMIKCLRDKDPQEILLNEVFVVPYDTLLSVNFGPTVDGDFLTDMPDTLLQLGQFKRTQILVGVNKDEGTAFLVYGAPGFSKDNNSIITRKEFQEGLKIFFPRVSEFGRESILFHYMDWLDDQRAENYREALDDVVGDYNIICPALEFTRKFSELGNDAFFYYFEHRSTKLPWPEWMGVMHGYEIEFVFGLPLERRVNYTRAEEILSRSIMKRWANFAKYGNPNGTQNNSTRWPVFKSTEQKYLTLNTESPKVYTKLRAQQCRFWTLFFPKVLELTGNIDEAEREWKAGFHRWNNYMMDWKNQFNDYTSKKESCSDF

Usually inhibition stands for the relative decrease from the control value, in per cent. Read a low inhibition as a response near the control. In [1], `CC(=O)O[C@H](C[C@H]1C(=O)CC=C2C[C@@H](O)CC[C@@]21C)[C@@]1(C)C(=O)CC[C@H]1C(C)=O` showed an inhibition of 7.72%.
Regarding `CO[C@H]1C[C@H](O[C@H]2[C@@H](OC)C[C@H](O[C@H]3CC[C@@]4(C)C(=CCC(=O)[C@@H]4C[C@@H](OC(C)=O)[C@@]4(C)C(=O)CC[C@H]4C(C)=O)C3)O[C@@H]2C)O[C@H](C)[C@H]1O`, in the assay on Sarcoptes scabiei [2], the Activity stood at 30%. Besides, the result in the assay with Sarcoptes scabiei [3] and with Sarcoptes scabiei [4] was inactive. Besides, the inhibition in assay [1] was 13.5%.
The term IC50 denotes the midpoint of a concentration-inhibition curve. As for `C[C@@]1([C@@H](C[C@H]2C(=O)CC=C3C[C@@H](O)CC[C@@]32C)OC(=O)c2ccccc2)C(=O)[C@@]2(C)CC[C@@H]1O2`, the IC50 in the assay with NFF, in the assay on HT-29, in the assay with MCF7, with MM96L and with HeLa was > 10 µM each time. Besides, the inhibition in [1] came to 14%.
In the case of `CO[C@H]1C[C@H](O[C@H]2CC[C@@]3(C)C(=CCC(=O)[C@@H]3C[C@@H](OC(C)=O)[C@@]3(C)C(=O)CC[C@H]3C(C)=O)C2)O[C@H](C)[C@H]1O[C@H]1C[C@@H](OC)[C@H](O)[C@@H](C)O1`, the result in the assay with Sarcoptes scabiei [2], with Sarcoptes scabiei [3] and with Sarcoptes scabiei [4] was inactive. The molecule also registered an inhibition in assay [1] of 2.64%.
